Results published in PubChem BioAssay (NCI).
Values joined by “and” are separate entries in the source; they are usually repeats but may differ in a detail not shown here. Identical values can stand only once.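 The compound was tested at five concentrations on cells cultured in 96-well plates, with a 48-hour exposure period. GI50: concentration for 50% inhibition of growth. At the TGI there is no net growth.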

Experiments:
Test in all cases: DTP human tumour cell line panel, 48 h
[1] = test system: SN12C renal
[2] = test system: OVCAR-3 ovarian
[3] = test system: HCC-2998 colon
[4] = test system: NCI-H23 lung
[5] = test system: RXF 393 renal
[6] = test system: HOP-62 NSCLC
[7] = test system: SR leukemia
[8] = test system: NCI-H522 lung
[9] = test system: DMS 114 small cell lung
[10] = test system: XF 498 CNS

SMILES | GI50 [1] | TGI [1] | GI50 [2] | TGI [2] | GI50 [3] | TGI [3] | GI50 [4] | TGI [4] | GI50 [5] | TGI [5] | GI50 [6] | TGI [6] | GI50 [7] | TGI [7] | GI50 [8] | TGI [8] | TGI [9] | GI50 [10] | TGI [10]
Brc1c[n+](Cc2ccc3ccccc3c2)cn1Cc1ccc2ccccc2c1 | 1.52 µM | 2.94 µM | 1.41 µM | 2.86 µM | 1.46 µM | 2.84 µM | 1.35 µM | 3.18 µM | 2.51 µM | 6.75 µM | 2.16 µM | 5.96 µM | 1.17 µM | 5.11 µM | 1.53 µM | 3.85 µM | – | – | –
O=C1Nc2ccc(F)c3c(OCCO)cc(-c4ccc[nH]4)c1c23 | 1.11 µM | 9.83 µM | 3.59 µM | 9.7 µM | 2.63 µM | 10.1 µM | 1.27 µM | 8.05 µM | 0.987 µM | 4.98 µM | 3.07 µM | 13.8 µM | 0.963 µM | 5.51 µM | 2.12 µM | 11.6 µM | – | – | –
COc1ccccc1-c1cc2c3c(nc4ccccc42)C(=O)c2cccnc2-c3n1 | 14.5 µM | 30.1 µM | 1.56 µM | > 37.5 µM | 14.8 µM | 30.6 µM | 9.06 µM | 25.3 µM | 16.7 µM | 46.8 µM | 14.4 µM | 48.2 µM | > 100 µM | > 100 µM | 1.65 µM | 5.23 µM | – | – | –
CCCCN(CC)C(=O)C(=O)C1C(=O)Nc2ccccc2S1=O (stereo not given) | – | > 100 µM | – | > 100 µM | – | > 100 µM | – | > 100 µM | – | > 100 µM | – | > 100 µM | – | – | – | > 100 µM | > 100 µM | – | –
OCCN1CCN(CCCN2c3ccccc3Sc3ccc(C(F)(F)F)cc32)CC1 | 4.49 µM and 11.4 µM and 7.83 µM | 11.4 µM and 26.7 µM and 21.8 µM | 4.34 µM and 12.4 µM | 10.6 µM and 25.5 µM | 0.824 µM and 2.75 µM and 1.97 µM | 1.6 µM and 7.99 µM and 4.21 µM | 5.2 µM and 11.6 µM and 10.5 µM | 12 µM and 24.5 µM and 24.1 µM | 1.35 µM and 5.08 µM and 5.7 µM | 6.39 µM and 18.9 µM and 19.6 µM | 3.11 µM and 13.1 µM and 11.6 µM | 9.82 µM and 27.4 µM and 24.7 µM | 2.05 µM and 3.56 µM and 1.9 µM | 6.46 µM and 13.2 µM and 5.51 µM | – | 3.49 µM and 30.1 µM and 26.8 µM | – | – | –
CCCOC(=O)N[C@H]1CCc2c(Br)c(OC)c(OC)c(OC)c2-c2ccc(SC)c(=O)cc21 | 0.0437 µM | 17.3 µM | 0.0319 µM | 10.4 µM | 0.0317 µM | 4.26 µM | 0.0348 µM | > 57.3 µM | 0.0397 µM | 24.8 µM | 0.0633 µM | > 100 µM | < 0.01 µM | > 40.5 µM | < 0.0119 µM | 0.558 µM | – | – | –
OCC(O)CC[CH2][Sn]([c]1ccccc1)([c]1ccccc1)[c]1ccccc1 (stereo not given) | 15.1 µM | 30.8 µM | 16.2 µM | 29.8 µM | 18.2 µM | 34.5 µM | 15.1 µM | 29.8 µM | 4.32 µM | 19.7 µM | 18.4 µM | 39.1 µM | 49.3 µM | > 100 µM | 4.64 µM | 13.7 µM | – | 19.5 µM | 35.9 µM
CC1OCC2OC(C)OC(C3C4=C(CC(C)(C)CC4=O)OC4=C3C(=O)CC(C)(C)C4)C2O1 (stereo not given) | – | > 100 µM | – | > 100 µM | – | > 100 µM | – | > 100 µM | – | > 100 µM | – | > 100 µM | – | > 100 µM | – | > 100 µM | – | – | –
O=C1Nc2ccc(Cl)cc2/C1=C\c1c(-c2ccc(F)cc2)nc2ccccn12 | 2.88 µM | 10.8 µM | 1.89 µM | 3.8 µM | 2.01 µM | 5.1 µM | 2.37 µM | 7.57 µM | 1.87 µM | 4.2 µM | 2.35 µM | 6.32 µM | 2.92 µM | > 100 µM | 2.17 µM | 5.42 µM | – | – | –
COc1ccc2c(c1)O/C(=C\c1cccc(OCC(=O)Nc3nc4ccccc4s3)c1)C2=O | 2.82 µM | > 100 µM | 3.16 µM | 9.56 µM | > 100 µM | > 100 µM | 3.58 µM | > 100 µM | 1.96 µM | 3.99 µM | 41.1 µM | > 100 µM | 0.749 µM | 2.42 µM | 0.718 µM | 2.74 µM | – | – | –
O=C(c1ccccc1)c1ccc(-c2ccc(O)cc2)cc1 | 20.2 µM | > 100 µM | 7.59 µM | 31.6 µM | 15.2 µM | 43.9 µM | 6.16 µM | 42.7 µM | 7.93 µM | 33.2 µM | 7.08 µM | 25.9 µM | 3 µM | 18.1 µM | 1.66 µM | 8.47 µM | – | – | –
Cc1ccc(NS(=O)(=O)c2ccc(-c3cnc(C4CC4)o3)cc2)cc1 | 4.1 µM | 17.2 µM | 2.1 µM | 6.13 µM | 10.8 µM | 23.5 µM | 4.1 µM | 17.9 µM | 2.36 µM | 10.7 µM | 3.13 µM | 16.7 µM | 0.316 µM | 17.7 µM | 2.43 µM | 17.4 µM | – | – | –
COC1=CC(c2ccc[nH]2)=N/C1=C\c1[nH]c(C)c(C(=O)CCC(=O)Oc2ccc3c(c2)CCC2C3CC[C@]3(C)C(=O)CC[C@@H]23)c1C (stereo not given in full) | 5.23 µM | > 100 µM | 17.5 µM | > 100 µM | 16.8 µM | > 96.1 µM | 9.75 µM | > 100 µM | 11.7 µM | > 87.4 µM | 18.2 µM | 66 µM | 0.634 µM | > 100 µM | 4.71 µM | 60.1 µM | – | – | –
CO/N=C(\c1ccccc1)c1cnn(-c2ccccc2)c1N | > 25 µM | > 25 µM | > 25 µM | > 25 µM | > 25 µM | > 25 µM | > 25 µM | > 25 µM | > 25 µM | > 25 µM | > 25 µM | > 25 µM | > 25 µM | > 25 µM | > 25 µM | > 25 µM | – | – | –
O=C1C(=O)c2ccc(Br)cc2-c2cc(Br)ccc21 | 2.14 µM | 11.2 µM | 0.619 µM | 1.36 µM | 21.3 µM | > 100 µM | 2.56 µM | 13.2 µM | 1.85 µM | 7.36 µM | 8.44 µM | > 45.6 µM | 0.998 µM | 2.92 µM | 0.407 µM | 1.74 µM | – | – | –
